Measured values from patent publication US20230406885A1, “CYCLIC PEPTIDES FOR TRAPPING INTERLEUKIN-1 BETA” (MERCK SHARP & DOHME LLC, priority 2022, published 2023).
*1 amine or outer side, *2 acyl side, *3 side chain or, on linkers, in order; H or OH if unused. Where a SMILES comes first, the peptide text is derived from it. [ ]: non-standard residue; d: D form. Trp(4-Cl)(βS-Me) = C[C@@H](c1c[nH]c2cccc(Cl)c12)[C@H](N)C(=O)O; Ala(piperidin-4-yl) = O=C([C@H](CC1CCN([*:3])CC1)N[*:1])[*:2]; Bip(4'-COOH) = N[C@@H](Cc1ccc(-c2ccc(C(=O)O)cc2)cc1)C(=O)O; Phe(4-COOH) = N[C@@H](Cc1ccc(C(=O)O)cc1)C(=O)O; h3Pal(5-CN) = N#Cc1cncc(CC[C@H](N)C(=O)O)c1; Pro(4R-NH2) = N[C@H]1CN[C@H](C(=O)O)C1; 1Nal = N[C@@H](Cc1cccc2ccccc12)C(=O)O; hTyr = N[C@@H](CCc1ccc(O)cc1)C(=O)O; 3Pal = N[C@@H](Cc1cccnc1)C(=O)O; 4Pal = N[C@@H](Cc1ccncc1)C(=O)O; dDab = NCC[C@@H](N)C(=O)O; Orn = NCCC[C@H](N)C(=O)O; dNMeA = CN[C@H](C)C(=O)O; Dap = NC[C@H](N)C(=O)O; Aib = CC(C)(N)C(=O)O

Target: T1, Recombinant human IL-1β (Homo sapiens, UniProt P01584)
T1 construct: purchased BioLegend 579404
T1 sequence (P01584 117-269): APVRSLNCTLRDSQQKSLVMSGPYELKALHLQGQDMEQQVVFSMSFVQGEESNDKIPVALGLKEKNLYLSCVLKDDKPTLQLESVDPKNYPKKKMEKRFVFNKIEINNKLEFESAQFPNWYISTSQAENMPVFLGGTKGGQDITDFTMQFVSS
Experiment: IL-6 assay in MRC5 cells: inhibition of IL-1β induced IL-6 secretion (AlphaLISA)
Format: cell-based
Details: inhibition of IL-1β induced IL-6 secretion in MRC5 cells; IL-1β pre-incubated 1 hour with compound; read-out: MRC5 IC50
In short: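 IL-1β at 2×EC80 in seeding medium (EMEM, 0.025% BSA) preincubated 1 h at ambient temperature with compound, then 3000 MRC5 cells/well added and incubated overnight at 37 °C, 5% CO2. IL-6 in conditioned medium quantified by AlphaLISA; IC50 from 4-parameter logistic fit.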

SMILES | IC50 [nM]
C[C@@H]1C(=O)NCC(=O)N[C@@H](Cc2ccc(-c3ccc(C(=O)O)cc3)cc2)C(=O)N[C@@H](Cc2cccc3ccccc23)C(=O)N[C@@H](CN)C(=O)NC(C)(C)C(=O)N[C@@H](CCc2cncc(C#N)c2)C(=O)N[C@@H](Cc2ccc(-c3ccc(C(=O)O)cc3)cc2)C(=O)N[C@@H](Cc2c[nH]c3ccccc23)C(=O)N[C@@H](Cc2ccc(C(=O)O)cc2)C(=O)NCC(=O)N2C[C@H](N)C[C@H]2C(=O)N[C@@H]([C@@H](C)c2c[nH]c3cccc(Cl)c23)C(=O)N[C@@H](CC(=O)O)C(=O)N1C [Example 34] (cyclo([Bip(4'-COOH)]W[Phe(4-COOH)]G[Pro(4R-NH2)][Trp(4-Cl)(βS-Me)]D[dNMeA]G[Bip(4'-COOH)][1Nal][Dap][Aib][h3Pal(5-CN)])) | 0.0755
CC(C)C[C@@H]1NC(=O)[C@H](Cc2cccc3ccccc23)NC(=O)[C@H](Cc2ccc(-c3ccc(C(=O)O)cc3)cc2)NC(=O)CNC(=O)[C@@H](C)N(C)C(=O)[C@H](CC(=O)O)NC(=O)[C@H]([C@@H](C)c2c[nH]c3cccc(Cl)c23)NC(=O)[C@@H]2C[C@@H](N)CN2C(=O)CNC(=O)[C@H](Cc2ccc(C(=O)O)cc2)NC(=O)[C@H](Cc2c[nH]c3ccccc23)NC(=O)[C@H](Cc2ccc(-c3ccc(C(=O)O)cc3)cc2)NC(=O)CNC(=O)C(C)(C)NC1=O [Example 35] (cyclo([Bip(4'-COOH)]W[Phe(4-COOH)]G[Pro(4R-NH2)][Trp(4-Cl)(βS-Me)]D[dNMeA]G[Bip(4'-COOH)][1Nal]L[Aib]G)) | 0.16
CC(C)C[C@@H]1NC(=O)[C@H](Cc2cccc3ccccc23)NC(=O)[C@H](Cc2ccc(-c3ccc(C(=O)O)cc3)cc2)NC(=O)CNC(=O)[C@@H](C)N(C)C(=O)[C@H](CC(=O)O)NC(=O)[C@H]([C@@H](C)c2c[nH]c3cccc(Cl)c23)NC(=O)[C@@H]2C[C@@H](N)CN2C(=O)CNC(=O)[C@H](Cc2ccc(C(=O)O)cc2)NC(=O)[C@H](Cc2c[nH]c3ccccc23)NC(=O)[C@H](Cc2ccc(-c3ccc(C(=O)O)cc3)cc2)NC(=O)[C@H](CCc2ccc(O)cc2)NC(=O)C(C)(C)NC1=O [Example 36] (cyclo([Bip(4'-COOH)]W[Phe(4-COOH)]G[Pro(4R-NH2)][Trp(4-Cl)(βS-Me)]D[dNMeA]G[Bip(4'-COOH)][1Nal]L[Aib][hTyr])) | 0.0522
C[C@@H]1C(=O)NCC(=O)N[C@@H](Cc2ccc(-c3ccc(C(=O)O)cc3)cc2)C(=O)N[C@@H](Cc2cccc3ccccc23)C(=O)N[C@@H](CCCN)C(=O)NC(C)(C)C(=O)NCC(=O)N[C@@H](Cc2ccc(-c3ccc(C(=O)O)cc3)cc2)C(=O)N[C@@H](Cc2c[nH]c3ccccc23)C(=O)N[C@@H](Cc2ccc(C(=O)O)cc2)C(=O)NCC(=O)N2C[C@H](N)C[C@H]2C(=O)N[C@@H]([C@@H](C)c2c[nH]c3cccc(Cl)c23)C(=O)N[C@@H](CC(=O)O)C(=O)N1C [Example 37] (cyclo([Bip(4'-COOH)]W[Phe(4-COOH)]G[Pro(4R-NH2)][Trp(4-Cl)(βS-Me)]D[dNMeA]G[Bip(4'-COOH)][1Nal][Orn][Aib]G)) | 0.103
C[C@@H]1C(=O)NCC(=O)N[C@@H](Cc2ccc(-c3ccc(C(=O)O)cc3)cc2)C(=O)N[C@@H](Cc2cccnc2)C(=O)N[C@@H](CO)C(=O)N[C@H](C)C(=O)N[C@@H](CCc2ccc(O)cc2)C(=O)N[C@@H](Cc2ccc(-c3ccc(C(=O)O)cc3)cc2)C(=O)N[C@@H](Cc2c[nH]c3ccccc23)C(=O)N[C@@H](Cc2ccc(C(=O)O)cc2)C(=O)NCC(=O)N2C[C@H](N)C[C@H]2C(=O)N[C@@H]([C@@H](C)c2c[nH]c3cccc(Cl)c23)C(=O)N[C@@H](CC(=O)O)C(=O)N1C [Example 38] (cyclo([Bip(4'-COOH)]W[Phe(4-COOH)]G[Pro(4R-NH2)][Trp(4-Cl)(βS-Me)]D[dNMeA]G[Bip(4'-COOH)][3Pal]S[dA][hTyr])) | 0.217
C[C@@H]1C(=O)NCC(=O)N[C@@H](Cc2ccc(-c3ccc(C(=O)O)cc3)cc2)C(=O)N[C@@H](Cc2ccncc2)C(=O)N[C@@H](CO)C(=O)N[C@H](C)C(=O)N[C@@H](CCc2ccc(O)cc2)C(=O)N[C@@H](Cc2ccc(-c3ccc(C(=O)O)cc3)cc2)C(=O)N[C@@H](Cc2c[nH]c3ccccc23)C(=O)N[C@@H](Cc2ccc(C(=O)O)cc2)C(=O)NCC(=O)N2C[C@H](N)C[C@H]2C(=O)N[C@@H]([C@@H](C)c2c[nH]c3cccc(Cl)c23)C(=O)N[C@@H](CC(=O)O)C(=O)N1C [Example 39] (cyclo([Bip(4'-COOH)]W[Phe(4-COOH)]G[Pro(4R-NH2)][Trp(4-Cl)(βS-Me)]D[dNMeA]G[Bip(4'-COOH)][4Pal]S[dA][hTyr])) | 0.232
C[C@@H]1C(=O)NCC(=O)N[C@@H](Cc2ccc(-c3ccc(C(=O)O)cc3)cc2)C(=O)N[C@@H](CC2CCNCC2)C(=O)N[C@@H](CO)C(=O)N[C@H](C)C(=O)N[C@@H](CCc2ccc(O)cc2)C(=O)N[C@@H](Cc2ccc(-c3ccc(C(=O)O)cc3)cc2)C(=O)N[C@@H](Cc2c[nH]c3ccccc23)C(=O)N[C@@H](Cc2ccc(C(=O)O)cc2)C(=O)NCC(=O)N2C[C@H](N)C[C@H]2C(=O)N[C@@H]([C@@H](C)c2c[nH]c3cccc(Cl)c23)C(=O)N[C@@H](CC(=O)O)C(=O)N1C [Example 40] (cyclo([Bip(4'-COOH)]W[Phe(4-COOH)]G[Pro(4R-NH2)][Trp(4-Cl)(βS-Me)]D[dNMeA]G[Bip(4'-COOH)][Ala(piperidin-4-yl)]S[dA][hTyr])) | 0.508
C[C@@H]1C(=O)NCC(=O)N[C@@H](Cc2ccc(-c3ccc(C(=O)O)cc3)cc2)C(=O)N[C@@H](CN)C(=O)N[C@@H](CO)C(=O)N[C@H](C)C(=O)N[C@@H](CCc2ccc(O)cc2)C(=O)N[C@@H](Cc2ccc(-c3ccc(C(=O)O)cc3)cc2)C(=O)N[C@@H](Cc2c[nH]c3ccccc23)C(=O)N[C@@H](Cc2ccc(C(=O)O)cc2)C(=O)NCC(=O)N2C[C@H](N)C[C@H]2C(=O)N[C@@H]([C@@H](C)c2c[nH]c3cccc(Cl)c23)C(=O)N[C@@H](CC(=O)O)C(=O)N1C [Example 41] (cyclo([Bip(4'-COOH)]W[Phe(4-COOH)]G[Pro(4R-NH2)][Trp(4-Cl)(βS-Me)]D[dNMeA]G[Bip(4'-COOH)][Dap]S[dA][hTyr])) | 0.469
CC(C)C[C@@H]1NC(=O)[C@H](CCCCN)NC(=O)[C@H](Cc2ccc(-c3ccc(C(=O)O)cc3)cc2)NC(=O)CNC(=O)[C@@H](C)N(C)C(=O)[C@H](CC(=O)O)NC(=O)[C@H]([C@@H](C)c2c[nH]c3cccc(Cl)c23)NC(=O)[C@@H]2C[C@@H](N)CN2C(=O)CNC(=O)[C@H](Cc2ccc(C(=O)O)cc2)NC(=O)[C@H](Cc2c[nH]c3ccccc23)NC(=O)[C@H](Cc2ccc(-c3ccc(C(=O)O)cc3)cc2)NC(=O)[C@H](CCc2ccc(O)cc2)NC(=O)[C@@H](C)NC1=O [Example 42] (cyclo([Bip(4'-COOH)]W[Phe(4-COOH)]G[Pro(4R-NH2)][Trp(4-Cl)(βS-Me)]D[dNMeA]G[Bip(4'-COOH)]KL[dA][hTyr])) | 0.627
CC(C)C[C@@H]1NC(=O)[C@H](CCCCN)NC(=O)[C@H](Cc2ccc(-c3ccc(C(=O)O)cc3)cc2)NC(=O)CNC(=O)[C@@H](C)N(C)C(=O)[C@H](CC(=O)O)NC(=O)[C@H]([C@@H](C)c2c[nH]c3cccc(Cl)c23)NC(=O)[C@@H]2C[C@@H](N)CN2C(=O)CNC(=O)[C@H](Cc2ccc(C(=O)O)cc2)NC(=O)[C@H](Cc2c[nH]c3ccccc23)NC(=O)[C@H](Cc2ccc(-c3ccc(C(=O)O)cc3)cc2)NC(=O)[C@H](CCc2ccc(O)cc2)NC(=O)[C@@H](CCN)NC1=O [Example 43] (cyclo([Bip(4'-COOH)]W[Phe(4-COOH)]G[Pro(4R-NH2)][Trp(4-Cl)(βS-Me)]D[dNMeA]G[Bip(4'-COOH)]KL[dDab][hTyr])) | 0.244
